Assay results: ChEMBL document CHEMBL4265965, “Dichloroacetophenones targeting at pyruvate dehydrogenase kinase 1 with improved selectivity and antiproliferative activity: Synthesis and structure-activity relationships” (Bioorg Med Chem Lett, 2018)
Active and inactive are the calls of the source. The calls are words filed in the database; no cut-off is given here.

How the values were obtained:
[1] = tested on: NCI-H1975; assay: Antiproliferative activity against human NCI-H1975 cells assessed as inhibition of cell proliferation at 12 uM after 72 hrs by MTT assay relative to control; assay type: functional; settings: NCI-H1975, 72 h
[2] = tested on: NCI-H1975; assay: Antiproliferative activity against human NCI-H1975 cells assessed as inhibition of cell proliferation at 6 uM after 72 hrs by MTT assay relative to control; assay type: functional; settings: for inhibition at 6 µM: NCI-H1975, 72 h
[3] = tested on: NCI-H1975; assay: Antiproliferative activity against human NCI-H1975 cells assessed as inhibition of cell proliferation at 2 uM after 72 hrs by MTT assay relative to control; assay type: functional; settings: for inhibition at 2 µM: NCI-H1975, 72 h
[4] = tested on: NCI-H1650; assay: Antiproliferative activity against human NCI-H1650 cells assessed as inhibition of cell proliferation at 12 uM after 72 hrs by MTT assay relative to control; assay type: functional; settings: for inhibition at 12 µM: NCI-H1650, 72 h
[5] = tested on: NCI-H1650; assay: Antiproliferative activity against human NCI-H1650 cells assessed as inhibition of cell proliferation at 6 uM after 72 hrs by MTT assay relative to control; assay type: functional; settings: for inhibition at 6 µM: NCI-H1650, 72 h
[6] = tested on: NCI-H1650; assay: Antiproliferative activity against human NCI-H1650 cells assessed as inhibition of cell proliferation at 2 uM after 72 hrs by MTT assay relative to control; assay type: functional; settings: for inhibition at 2 µM: NCI-H1650, 72 h
[7] = tested on: A549; assay: Antiproliferative activity against human A549 cells assessed as inhibition of cell proliferation at 12 uM after 72 hrs by MTT assay relative to control; assay type: functional; settings: A549, 72 h
[8] = tested on: A549; assay: Antiproliferative activity against human A549 cells assessed as inhibition of cell proliferation at 6 uM after 72 hrs by MTT assay relative to control; assay type: functional; settings: for inhibition at 6 µM: A549, 72 h
[9] = tested on: A549; assay: Antiproliferative activity against human A549 cells assessed as inhibition of cell proliferation at 2 uM after 72 hrs by MTT assay relative to control; assay type: functional; settings: for inhibition at 2 µM: A549, 72 h
[10] = biological target: [Pyruvate dehydrogenase (acetyl-transferring)] kinase isozyme 1, mitochondrial (Homo sapiens, UniProt Q15118); assay: Inhibition of recombinant human N-terminal His6/Sumo-tagged PDK1 (29 to 436 residues) expressed in Escherichia coli BL21 at 1 uM by kinase-glo luminescence assay relative to control

| SMILES | inhibition at 12 µM [1] [%] | inhibition at 6 µM [2] [%] | inhibition at 2 µM [3] [%] | inhibition at 12 µM [4] [%] | inhibition at 6 µM [5] [%] | inhibition [6] | inhibition at 12 µM [7] [%] | inhibition at 6 µM [8] [%] | inhibition at 2 µM [9] [%] | inhibition [10] | inhibition at 2 µM [6] [%] | inhibition [3] | inhibition [4] | inhibition [5] | inhibition [9] | inhibition [2] | inhibition [8] |
| --- | --- | --- | --- | --- | --- | --- | --- | --- | --- | --- | --- | --- | --- | --- | --- | --- | --- |
| O=C(c1ccccc1[N+](=O)[O-])C(Cl)Cl | 93.7 | 61.5 | 4.8 | 49.9 | 22.4 | inactive | 6.1 | 4.4 | 1.9 | inactive | – | – | – | – | – | – | – |
| CCc1ccc(C(=O)C(Cl)Cl)cc1 | 96.5 | 97.6 | 55.4 | 99.3 | 79.1 | – | 92.8 | 81.4 | 31.5 | 44% | 30.7 | – | – | – | – | – | – |
| Cc1ccccc1C(=O)C(Cl)Cl | 93 | 69.8 | 39.8 | 69.6 | 46.7 | – | 79.8 | 62.2 | 23.7 | inactive | 27.2 | – | – | – | – | – | – |
| O=C(c1ccccc1C(F)(F)F)C(Cl)Cl | 10.2 | 2.1 | – | 16.7 | 12.7 | – | 8.3 | 9 | 3 | inactive | 8.1 | inactive | – | – | – | – | – |
| O=C(c1ccc(Cl)c(Cl)c1)C(Cl)Cl | 98.4 | 95.8 | 74.1 | 100 | 92.7 | – | 96.7 | 74.5 | 42.1 | inactive | 54 | – | – | – | – | – | – |
| O=C(c1ccc(Cl)c([N+](=O)[O-])c1)C(Cl)Cl | 100 | 99.8 | 98.4 | 100 | 100 | – | 99.8 | 86.7 | 34.7 | 41.7% | 96.3 | – | – | – | – | – | – |
| O=C(c1ccccc1F)C(Cl)Cl | 48.6 | 12.8 | 4.4 | – | – | inactive | 13.6 | 10.1 | – | inactive | – | – | inactive | inactive | inactive | – | – |
| Cc1ccc(C(=O)C(Cl)Cl)cc1[N+](=O)[O-] | 99.7 | 89.5 | 15.8 | 94.6 | 69.8 | – | 89.5 | 67.8 | 12.6 | 50.5% | 15.4 | – | – | – | – | – | – |
| CC(C)c1ccc(C(=O)C(Cl)(Cl)Cl)cc1[N+](=O)[O-] | 31.2 | – | – | 22.6 | – | inactive | 12.5 | – | – | – | – | inactive | – | inactive | inactive | inactive | inactive |
| O=C(c1cccc(I)c1)C(Cl)Cl | 99.1 | 97.5 | 64 | 98.7 | 82 | – | 89.8 | 67 | 20.4 | – | 46.1 | – | – | – | – | – | – |
| CCCc1ccc(C(=O)C(Cl)Cl)cc1[N+](=O)[O-] | 99.8 | 69.5 | 31.5 | 99.8 | 60.2 | – | 65.2 | 8.9 | – | inactive | 29.8 | – | – | – | inactive | – | – |
| O=C(c1ccccc1I)C(Cl)Cl | 96.5 | 90.8 | 28.6 | 99.4 | 57.1 | – | 41.2 | 7.8 | – | inactive | 21 | – | – | – | inactive | – | – |
| CCOc1ccc(C(=O)C(Cl)Cl)cc1 | 98.6 | 89 | 22.6 | 90.2 | 50.4 | – | 80.9 | 31.6 | 18.9 | 19.7 to 67.9% | 22.3 | – | – | – | – | – | – |
| O=C(c1ccc(Br)cc1)C(Cl)Cl | 96.1 | 67.7 | 13.3 | 73.4 | 37.8 | – | 48.8 | 16.2 | – | – | 23.5 | – | – | – | inactive | – | – |
| O=C(c1ccccc1Cl)C(Cl)Cl | 71 | 39 | 12.6 | 42.9 | 19.7 | – | 27.9 | 4.6 | – | inactive | 10.3 | – | – | – | inactive | – | – |
| O=C(c1cccc(C(F)(F)F)c1)C(Cl)Cl | 97.8 | 96.6 | 45.8 | 97.5 | 65.9 | – | 77.9 | 28.4 | 11 | – | 24 | – | – | – | – | – | – |
| COc1ccc(C(=O)C(Cl)Cl)cc1 | 98.3 | 95.8 | 35.1 | 84.9 | 56.8 | – | 86.1 | 50.1 | 7.5 | 19.7 to 67.9% | 32.5 | – | – | – | – | – | – |
| Cc1ccc(C(=O)C(Cl)Cl)cc1 | 95.7 | 83.1 | 28.6 | 78.4 | 54.3 | – | 80 | 33.2 | – | 19.7% | 31.2 | – | – | – | inactive | – | – |
| O=C(c1ccc(Cl)cc1Cl)C(Cl)Cl | 99 | 96.9 | 80.2 | 99.8 | 89 | – | 48.4 | 4.4 | 1.8 | – | 35.2 | – | – | – | – | – | – |
| O=C(c1ccc(Br)c([N+](=O)[O-])c1)C(Cl)Cl | 98.9 | 74.1 | 9.1 | 59.1 | – | inactive | 50.5 | 14.1 | 6.5 | – | – | – | – | inactive | – | – | – |
| Cc1cc(C(=O)C(Cl)Cl)ccc1Cl | 99.2 | 97.8 | 46.7 | 98.8 | 79.7 | – | 81 | 51.7 | 13.2 | 10.2% | 38.8 | – | – | – | – | – | – |
| O=C(c1ccccc1Br)C(Cl)Cl | 49.5 | 14.3 | – | 0.4 | – | inactive | 17.5 | 6.1 | 1.4 | inactive | – | inactive | – | inactive | – | – | – |
| O=C(c1ccc(I)cc1)C(Cl)Cl | 96.8 | 91.4 | 33.8 | 99.6 | 65.6 | – | 74.4 | 52.3 | 9.3 | – | 29.3 | – | – | – | – | – | – |
| O=C(c1ccc(C(F)(F)F)cc1)C(Cl)Cl | 98.2 | 91.6 | 47.8 | 75.5 | 49.7 | – | 85.9 | 37.1 | 18.6 | – | 25.8 | – | – | – | – | – | – |
| CCCCc1ccc(C(=O)C(Cl)Cl)cc1[N+](=O)[O-] | 100 | 65.2 | 39.8 | 97.5 | 57.2 | – | 56.9 | 12 | – | inactive | 22.3 | – | – | – | inactive | – | – |
| O=C(c1ccc(Cl)c(C(F)(F)F)c1)C(Cl)Cl | 98.4 | 97.6 | 70.1 | 100 | 95.3 | – | 94.5 | 79.5 | 27.6 | – | 55.7 | – | – | – | – | – | – |
